Results taken from article PMC5767893 (ACS Medicinal Chemistry Letters, 2017).

What was measured:
p300 HAT domain = target: T1, p300 HAT domain (Homo sapiens, UniProt Q09472); settings: for LE (ligand efficiency): LE = −1.4 log Ki/# heavy atoms
T1 sequence (Q09472 1287-1663 limits assumed): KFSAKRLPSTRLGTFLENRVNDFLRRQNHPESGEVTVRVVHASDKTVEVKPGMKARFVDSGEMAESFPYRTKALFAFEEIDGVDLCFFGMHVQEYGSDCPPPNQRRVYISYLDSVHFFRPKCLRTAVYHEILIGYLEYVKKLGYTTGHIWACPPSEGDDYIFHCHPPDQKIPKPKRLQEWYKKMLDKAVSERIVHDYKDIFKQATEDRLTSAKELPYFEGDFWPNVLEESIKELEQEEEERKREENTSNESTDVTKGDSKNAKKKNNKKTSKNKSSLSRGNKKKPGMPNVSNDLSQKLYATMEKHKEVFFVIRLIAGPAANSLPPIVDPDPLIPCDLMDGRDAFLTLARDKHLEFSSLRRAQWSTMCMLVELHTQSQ

[1] = mouse
[2] = Mouse microsomal stability; type: in vitro ADME; settings: microsomes
[3] = Nonspecific microsomal binding; type: in vitro ADME; settings: human, microsomes
Plasma protein binding = type: in vitro ADME; settings: mouse
in vivo = settings: mouse, plasma, po, 1 mg/kg

| SMILES | LE (ligand efficiency) (p300 HAT domain) | CLint scaled [2] | mouse microsomal stability CL scaled [2] | further results |
| --- | --- | --- | --- | --- |
| CC(C1CC1)N(Cc1ccccc1)C(=O)CN1C(=O)NC(Cc2c[nH]c3ccccc23)C1=O (stereo not drawn) [Compound 1] | 0.23 | – | – | LipE (lipid efficiency) (p300 HAT domain; LipE = −log Ki – clogP): 3 |
| Cc1ccccc1C1NC(=O)N(CC(=O)N(Cc2ccccc2)[C@@H](C)C2CC2)C1=O (stereo partly drawn) [Compound 3b] | 0.27 | – | – | – |
| CNC(=O)Nc1ccc2c(c1)CC[C@]21NC(=O)N(CC(=O)N(Cc2ccccc2)[C@@H](C)C2CC2)C1=O [Compound 20] | – | – | – | oral AUC ([1]; 10 mg/kg oral dose): no exposure |
| CNC(=O)Nc1ccc2c(c1)CC[C@@]21OC(=O)N(CC(=O)N(Cc2ccccc2)[C@@H](C)C2CC2)C1=O [Compound 22] | – | 188 L/h/kg | 107 L/h/kg | – |
| CNC(=O)Nc1ccc2c(c1)CC[C@@]21OC(=O)N(CC(=O)N(Cc2ccc(F)cc2)[C@H](C2CC2)C(F)(F)F)C1=O [Compound 23] | – | 181 L/h/kg | 41 L/h/kg | F % oral [1]: 45%; fraction unbound [3]: 0.22; fraction unbound (Plasma protein binding): 0.002; AUC (in vivo): 1100 ng·h/mL |
